Measured values taken from paper PMC4072508, “Genome-Wide Prediction and Validation of Peptides That Bind Human Prosurvival Bcl-2 Proteins” (PLoS Computational Biology, 2014).
Values joined by “and” are separate entries in the source; they are usually repeats but may differ in a detail not shown here. Equal values may be shown once. Read-outs that look alike come from different tables or passages of the source. No end group written: not given here.

Key:
Test in all cases: Fluorescence polarization direct binding
Mcl-1 = molecular target: T1, Mcl-1 (Homo sapiens, UniProt Q07820)
T1 construct: myc-Mcl-1 SPOT array & FP; made in house
T1 sequence (Q07820 with tags, fused parts or gaps): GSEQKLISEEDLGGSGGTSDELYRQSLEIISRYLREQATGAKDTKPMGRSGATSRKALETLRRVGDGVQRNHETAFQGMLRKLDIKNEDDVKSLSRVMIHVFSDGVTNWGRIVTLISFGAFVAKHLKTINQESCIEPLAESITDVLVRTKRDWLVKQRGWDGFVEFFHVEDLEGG
Protocol: (§1) Peptides were purified by reverse-phase HPLC using a C18 column and a linear water/acetonitrile gradient. We re-analyzed the purified peptide by mass spectrometry if there was not a single well-defined peak in HPLC chromatogram.
(§2) Fluorescence polarization (FP) assays were done at 25°C in assay buffer (20 mM NaPO4, 50 mM NaCl, 1 mM EDTA, 0.001% Triton X (v/v), pH 7.8). […] For all FP experiments, the total well volume was 120 µl. […] Anisotropy was measured using a Spectramax M5 plate reader from Molecular Devices.
(§3) Direct binding curves were fit using Pylab/Scipy/Optimize to a single-site binding model utilized previously.
(§4) ^1Best-fit KD values determined by combining all replicate titration curves and fitting to a direct binding model (see Methods). […] Values with an X followed by a number indicate the highest concentration (the number, in nM) for which signal was measured yet no binding was detected.

Bcl-2 = molecular target: T2, Bcl-2 (Homo sapiens, UniProt P10415, DEL53-91)
T2 construct: myc- Bcl-2 FP; made in house
T2 sequence (P10415 with tags, fused parts or gaps DEL53-91): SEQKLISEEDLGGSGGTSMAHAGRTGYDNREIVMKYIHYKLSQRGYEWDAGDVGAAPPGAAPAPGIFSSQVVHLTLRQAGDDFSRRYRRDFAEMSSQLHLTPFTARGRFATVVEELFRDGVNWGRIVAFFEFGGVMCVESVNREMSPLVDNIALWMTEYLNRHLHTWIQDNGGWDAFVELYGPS
Protocol: as §1, §2, §3, §4

Bcl-xL = molecular target: T3, Bcl-xL (Homo sapiens, UniProt Q07817)
T3 construct: myc-Bcl-xL SPOT array & FP; made in house
T3 sequence (Q07817 with tags, fused parts or gaps): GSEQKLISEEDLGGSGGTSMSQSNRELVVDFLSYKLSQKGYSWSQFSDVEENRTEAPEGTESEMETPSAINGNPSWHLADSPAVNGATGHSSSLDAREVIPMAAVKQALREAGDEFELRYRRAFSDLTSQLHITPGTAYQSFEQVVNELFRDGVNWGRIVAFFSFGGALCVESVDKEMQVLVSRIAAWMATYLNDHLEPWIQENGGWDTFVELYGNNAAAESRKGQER
Protocol: as §1, §2, §3, §4

Bcl-w = molecular target: T4, Bcl-w (Homo sapiens, UniProt Q92843, Q133R)
T4 construct: myc-Bcl-w SPOT array & FP; made in house
T4 sequence (Q92843 with tags, fused parts or gaps Q133R): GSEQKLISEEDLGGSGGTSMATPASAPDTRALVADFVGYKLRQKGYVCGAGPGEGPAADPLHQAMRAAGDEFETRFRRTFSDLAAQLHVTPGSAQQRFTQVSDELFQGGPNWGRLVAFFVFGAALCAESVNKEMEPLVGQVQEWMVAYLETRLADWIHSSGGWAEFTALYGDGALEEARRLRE
Protocol: as §1, §2, §3, §4

Bfl-1 = molecular target: T5, Bfl-1 (Homo sapiens, UniProt Q16548)
T5 construct: myc- Bfl-1 SPOT array & FP; made in house
T5 sequence (Q16548 with tags, fused parts or gaps): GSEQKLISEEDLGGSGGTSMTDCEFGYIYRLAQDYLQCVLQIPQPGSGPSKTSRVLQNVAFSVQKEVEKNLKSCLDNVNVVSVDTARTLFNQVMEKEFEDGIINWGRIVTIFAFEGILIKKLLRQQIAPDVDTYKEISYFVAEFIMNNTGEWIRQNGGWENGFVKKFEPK
Protocol: as §1, §2, §3, §4

[1] = Binder class, Mcl-1, benchmark classification of peptides newly characterized in this study
[2] = FP direct binding, 10 nM FAM-labeled peptide, receptor titrated, 25°C, pH 7.8, fit of all replicate titrations, X+number in a cell = highest concentration (nM) measured with no binding detected, given here as >, SPNS1 fit to raw fluorescence
[3] = FP direct binding, 10 nM FAM-labeled peptide, receptor titrated, 25°C, pH 7.8, fit of all replicate titrations, X+number in a cell = highest concentration (nM) measured with no binding detected, given here as >, SPNS1 fit to raw fluorescence, read-out: Best-fit KD, Bcl-2
[4] = benchmark classification of peptides newly characterized in this study, read-out: Binder class, Bcl-2
[5] = FP direct binding, 10 nM FAM-labeled peptide, receptor titrated, 25°C, pH 7.8, fit of all replicate titrations, X+number in a cell = highest concentration (nM) measured with no binding detected, given here as >, SPNS1 fit to raw fluorescence, read-out: Best-fit KD, Bcl-xL
[6] = benchmark classification of peptides newly characterized in this study, read-out: Binder class, Bcl-xL
[7] = FP direct binding, 10 nM FAM-labeled peptide, receptor titrated, 25°C, pH 7.8, fit of all replicate titrations, X+number in a cell = highest concentration (nM) measured with no binding detected, given here as >, SPNS1 fit to raw fluorescence, read-out: Best-fit KD, Bcl-w
[8] = benchmark classification of peptides newly characterized in this study, read-out: Binder class, Bcl-w
[9] = FP direct binding, 10 nM FAM-labeled peptide, receptor titrated, 25°C, pH 7.8, fit of all replicate titrations, X+number in a cell = highest concentration (nM) measured with no binding detected, given here as >, SPNS1 fit to raw fluorescence, read-out: Best-fit KD, Bfl-1
[10] = benchmark classification of peptides newly characterized in this study, read-out: Binder class, Bfl-1

Substance | Kd (Mcl-1; [1]) [nM] | Kd (Mcl-1; [2]) | Kd (Bcl-2; [3]) | Kd (Bcl-2; [4]) [nM] | Kd (Bcl-xL; [5]) | Kd (Bcl-xL; [6]) [nM] | Kd (Bcl-w; [7]) | Kd (Bcl-w; [8]) [nM] | Kd (Bfl-1; [9]) | Kd (Bfl-1; [10]) [nM] | Best-fit KD, Bcl-2 (Bcl-2; [2]) | Best-fit KD, Bcl-xL (Bcl-xL; [2]) | Best-fit KD, Bcl-w (Bcl-w; [2]) | Best-fit KD, Mcl-1 (Mcl-1; [2])
ATRRLSGFLRTLADRLEGTKELL-NH2 [MINA] | > 10000 | > 10000 nM | 266 nM | < 1000 | 1010 nM | 1000 to 10000 | 1230 nM | 1000 to 10000 | 1130 nM | 1000 to 10000 |  |  |  | 
AWGKFGGAFARYADEMKEIQERQ-NH2 [PURB] | > 10000 | > 4000 nM | 34 nM | < 1000 | > 100000 nM | > 10000 | > 1800 nM | > 10000 | > 4670 nM | > 10000 |  |  |  | 
ELQELARKLQELADASENLLTEN-NH2 [TXNDC11] | 1000 to 10000 | 2380 nM | 86 nM | < 1000 | 1490 nM | 1000 to 10000 | 249 nM | < 1000 | > 10000 nM | > 10000 |  |  |  | 
EVLAGPLAQRLSHIAEDVGRLVKKSR-NH2 [ARHGAP4] | < 1000 | > 2430 nM | 6090 nM | 1000 to 10000 | 3060 nM | 1000 to 10000 | 749 nM | 1000 to 10000 | > 5590 nM | > 10000 |  |  |  | 
FTGNNTAVQELKRVSEQFTATFRRKA-NH2 [TUBB4Q] | < 1000 | 1460 nM | 1410 nM | 1000 to 10000 | 2050 nM | 1000 to 10000 | 2490 nM | 1000 to 10000 | > 4670 nM | > 10000 |  |  |  | 
GDSVLARMLRELGDSLRRPQLRL-NH2 [SLC19A1] | < 1000 | 22 nM | 237 nM | < 1000 | 1460 nM | 1000 to 10000 | 18 nM | < 1000 | 182 nM | < 1000 |  |  |  | 
GSGAWGLLLRRVGDDVLVHLLAR-NH2 [TERT] | < 1000 | 69 nM | 49 nM | < 1000 |  | 1000 to 10000 | 992 nM | < 1000 | 99 nM | < 1000 |  |  |  | 
IIHKLAMQLRHIGDNIDHRMVRE-NH2 [PXT1] | < 1000 | < 30 nM and 0.9 nM | < 30 nM and 14 nM | < 1000 | < 30 nM and 8 nM | < 1000 | < 30 nM and 5 nM | < 1000 | < 30 nM and 1 nM | < 1000 |  |  |  | 
KKMTLSEIYRWIADNFPYYKNAG-NH2 [FOXJ2] | > 10000 | > 10000 nM | 130 nM | < 1000 | 103 nM | < 1000 | 85 nM | < 1000 | > 3370 nM | > 10000 | bound tightly | bound tightly | bound tightly | 
KREKLVEILRNIGDERTMVFVET-NH2 [DDX4] | < 1000 | 142 nM | > 3050 nM | < 1000 | > 4000 nM | > 10000 | > 4350 nM | 1000 to 10000 | > 3370 nM | > 10000 |  |  |  | bound tightly
LMARPAVALHFQSIADGFKEAVRYVL-NH2 [SOS2] | > 10000 | > 4000 nM | 3290 nM | 1000 to 10000 | > 6900 nM | > 10000 | 5380 nM | 1000 to 10000 | > 3290 nM | > 10000 |  |  |  | 
